Experiments:
[1] = test system: HCC1937 cells; assay: Competition assay of radiotracer uptake; type: cell-based, Human; settings: 1:2 serial dilution starting at 1µM; Fig. 11
Method: Human breast carcinoma cells (HCC1937, ACC513) were purchased from the German Collection of Microorganisms and Cell Cultures (DSMZ GmbH, Braunschweig, Germany) and cultured in Roswell Park Memorial Institute (RPMI) 1640 medium supplemented with 16 % fetal calf serum (FCS), 100 U/ml penicillin and 100 µg/ml streptomycin at 37°C under humid 5 % CO2 atmosphere. Absence of mycoplasma infection was confirmed by PCR analysis in monthly intervals. […] After 30 min of incubation at 37°C, the cells were washed by vacuum filtration of medium through the plate (2×100 µl followed by 2×200 µl), the filters were transferred into tubes using a commercial punch kit (MAMP09608, Merck) and measured in a gamma counter (Wizard 2, Perkin-Elmer, Waltham, MA, USA). Experiments were performed in triplicates and the uptake was quantified as percent of added activity.

[2] = Serum stability analysis in human serum; type: in vitro ADME; settings: over a time course of 240 minutes; Fig 7 B
[3] = Serum stability analysis in mouse serum; type: in vitro ADME; settings: over a time course of 240 minutes; Fig 7 B
[4] = test system: HCC1937 cells; assay: In vitro radiotracer uptake; type: cell-based, Human
Method: Human breast carcinoma cells (HCC1937, ACC513) were purchased from the German Collection of Microorganisms and Cell Cultures (DSMZ GmbH, Braunschweig, Germany) and cultured in Roswell Park Memorial Institute (RPMI) 1640 medium supplemented with 16 % fetal calf serum (FCS), 100 U/ml penicillin and 100 µg/ml streptomycin at 37°C under humid 5 % CO2 atmosphere. Absence of mycoplasma infection was confirmed by PCR analysis in monthly intervals.
After 30 min of incubation at 37°C, the cells were washed by vacuum filtration of medium through the plate (2×100 µl followed by 2×200 µl), the filters were transferred into tubes using a commercial punch kit (MAMP09608, Merck) and measured in a gamma counter (Wizard 2, Perkin-Elmer, Waltham, MA, USA). Experiments were performed in triplicates and the uptake was quantified as percent of added activity.

[5] = test system: HCC1937 xenograft; assay: PET imaging and ex vivo biodistribution in xenograft-bearing mice
Method: All animal experiments were performed according to the German animal welfare act and approved by the local authorities (Regierungsprasidium Tübingen, R3/18). Animals were housed in individually ventilated cages (IVCs, 5 mice per cage) with bedding and enrichment, and food and water was provided ad libitum. Animals were kept under isoflurane anesthetic (1.5 % in pure oxygen, 1.5 l/min) during the experiments. 1×10^7 cells in 1:1 ice-cold Matrigel (Thermo Scientific) / PBS were injected subcutaneously in the right shoulder area of 7 week-old female NOD.CB17-Prkdc^scid/J mice (n = 5). […] The mice underwent a second, 10 min static PET scan 2 h post-injection (p.i.). Mice were sacrificed by cervical dislocation, the collected organs were weighed and the tissue uptake was determined by gamma-counting (WIZARD2, PerkinElmer). PET image reconstruction and correlation with MR images was performed with Inveon Acquisition Workplace and Inveon Research Workplace, respectively, using a user-defined dynamic framing and an ordered subset expectation maximization (OSEM3D) algorithm. Regions of interest (ROIs) were drawn according to the acquired MR images and co-registered with the PET data to obtain time-activity curves (TACs).
Statistical analyses were performed with GraphPad Prism 9 using non-parametric t-tests and are represented as mean value ± standard deviation. Blood half-life was calculated using a two-phase decay fit. P-values < 0.05 were considered statistically significant according to the software (*: p < 0.05, **: p < 0.01, ***: p < 0.001, ****: p < 0.0001).

## Cn1ncnc1[C@H]1c2n[nH]c(=O)c3cc(F)cc(c23)N[C@@H]1c1ccc(F)cc1 [talazoparib, (8S,9R)-5-Fluoro-8-(4-fluorophenyl)-2,7,8,9-tetrahydro-9-(1-methyl-1H-1,2,4-triazol-5-yl)-3H-pyrido[4,3,2-de]phthalazin-3-one]
[1]
  blocking of the [^18F]talazoparib signal compared to olaparib: blocked the signal more effective

## Cn1ncnc1[C@H]1c2n[nH]c(=O)c3cc(F)cc(c23)N[C@@H]1c1ccc([18F])cc1 [[^18F] talazoparib, (8S,9R)-5-Fluoro-8-(4-^18fluorophenyl)-2,7,8,9-tetrahydro-9-(1-methyl-1H-1,2,4-triazol-5-yl)-3H-pyrido[4,3,2-de]phthalazin-3-one]
[2]
  Stability in human serum: no radiometabolite was detected
[3]
  Stability in mouse serum: no radiometabolite was detected
[4]; 30 min incubation at 37°C, Fig. 7A
  uptake in HCC1937 cells: high uptake
[4]; blocking with olaparib or talazoparib, final concentration 25 µM
  uptake blocked by excess olaparib and talazoparib: blockable to baseline
[5]; biodistribution analysis 2.5 h p.i., n = 5
  absolute xenograft uptake: 3.7 ± 0.71 %ID/g
[5]; blood TAC, two-phase decay fit
  calculated blood half-life: 3.3 min
[5]; mouse, in vivo
  uptake in the brain tissue: very low uptake
